Assay results: patent publication US20250032450A1, “[…] INHALABLE FORMULATIONS” (Cybin UK Ltd., priority 2021, published 2025)
Converted amounts (≈) assume the structure as drawn. Like-named read-outs stand apart in the source and are kept apart here.

What was measured:
[1] = N,N-Dimethyltryptamine pH-solubility in 0.5M Britton Robinson buffer; format: physicochemical; details: aqueous buffer, thermodynamic from solid, read-out: solubility, Real data
Protocol: Prior to adding N,N-dimethyltryptamine, a quantity of NaOH was added to the BR buffer as required to ensure the required pH. The total volume of BR buffer plus required amount of NaOH was 5 ml for each pH tested (pH 4, 5, 6, 7, 8, 9 & 10).

[2] = HMDB; cited from earlier work
[3] = in water; estimated; cited from earlier work

CN(C)CCc1c[nH]c2ccccc12 [N,N-Dimethyltryptamine]
solubility ([1]; pH 4.05, 25° C.): 105 mg/mL (≈ 556 mM)
solubility ([1]; pH 4.98, 25° C.): 126 mg/mL (≈ 671 mM)
solubility ([1]; pH 6.05, 25° C.): 92.6 mg/mL (≈ 492 mM)
solubility ([1]; pH 7.08, 25° C.): 68.6 mg/mL (≈ 364 mM)
solubility ([1]; pH 8.07, 25° C.): 88.4 mg/mL (≈ 470 mM)
solubility ([1]; pH 8.91, 25° C.): 17.1 mg/mL (≈ 90.8 mM)
solubility ([1]; pH 10.01, 25° C.): 1.14 mg/mL (≈ 6.06 mM)
degradation in solution [2]: degrades relatively quickly in solution

CN(C)CCc1c[nH]c2cccc(OP(=O)(O)O)c12 [psilocybin, [3-(2-Dimethylaminoethyl)-1H-indol-4-yl] dihydrogen phosphate]
pKa of terminal phosphate oxygen atom (first value) [3]: 1.3
pKa of terminal phosphate oxygen atom (second value) [3]: 6.5
